# Counter-ions that a name gives are not always drawn. Marks after values point to notes of the source that are not given here.
# Legend:
# ICR mice [1] = experiment: Reserpine-induced hypothermia test in mice; format: in vivo; conditions: 3 mg/kg gavage 7 days, reserpine 2 mg/kg i.p., rectal temperature 4 hours after reserpine
# Description: 50 mice were randomly divided into five groups (n=10 for each group): high-dose group (14 mg*kg^−1), medium-dose group (7 mg*kg^−1), low-dose group (3.5 mg*kg^−1) of Albiflorin; control group of paroxetine (3 mg/kg); model group of physiological saline. The gavage was carried out for 7 days. Rectal temperatures of mice were measured at 1 hour after the administration on the 8th day, then reserpine was administered by intraperitoneal injection at a dose of 2 mg/kg, rectal temperatures of mice were measured again at 4 hours after the injection of reserpine. The depth into anus of thermometer and the time for each temperature measurement of mice was coincident. The experimental data was expressed as X±SD, and the analysis of variance for the experimental results was carried out by SPSS 11.5 statistical software (purchased from SPSS Inc., USA), the experimental results were shown in Table 4.
# ICR mice [2] = experiment: Tail suspension test in mice, administration by gavage; format: in vivo; conditions: 1 h after administration, over 4 min; for Immobility Time (s): listed as paeoniflorin
# Description: In the second day, 1 h after the administration, the tail of mouse (2 cm away from the tip of the tail) was fixed to the connection line of 100 g tension transducer by adhesive plaster, and the mouse was hung upside down, with the head about 15 cm away from the experimental bench, two animals isolated from each other by a cardboard were simultaneously tested for each time. The transducer was connected to the Medlab bio-signals acquisition and processing system, after 2 min of adaption, the result over 4 min was recorded, and the immobility situation was converted into the time(s). The experimental data were expressed as X±SD, and the analysis of variance for the experimental results was carried out by SPSS 11.5 statistical software (purchased from SPSS Inc., USA).
# [3] = tested on: rats with chronic stress induced depression model; experiment: Body weights of rats with chronic stress induced depression (CUMS); format: in vivo, SD rats; conditions: 3 mg/kg/day gavage
# Description: (§1) The gavage was carried out along with the model establishment, once a day, for 21 days. […] Referring to the methods in the literature (Xu Jing, Li Xiaoqiu, Establishment and evaluation of the model of chronic stress induced depression, Chinese Journal of Behavioral Medical Science, 2003, 12(1): 14 16), the model was established (i.e., establishing animal model of anti-depression by means of CUMS): the foot electric shock (voltage: […] (5 minutes), drying at 45° C. (5 minutes), tail nipping (1 min), wet feeding (wet mat), reversed day and night (24 hours), fasting (24 hours), water deprivation (24 hours) were randomly scheduled within 21 days, one kind of stimulations was given for each day, except for the animals of vehicle group, the others were separately caged with free diet, at the room temperature of (24±1)° C., with the relative humidity of (60±10)%. All parameters to be tested were expressed as Mean±SD (X±s), and tested by means of analysis of variance (ANOVA) in SPSS 12.0 software (purchased from SPSS Inc., USA), p<0.05 means that there was a significant difference.
# [4] = tested on: rats with chronic stress induced depression model; experiment: Consumption of 1% aqueous sucrose, chronic stress induced depression; format: in vivo, SD rats; conditions: 3 mg/kg/day gavage, 1% aqueous sucrose for 1 hour
# Description: The gavage was carried out along with the model establishment, once a day, for 21 days. […] Referring to the methods in the literature (Xu Jing, Li Xiaoqiu, Establishment and evaluation of the model of chronic stress induced depression, Chinese Journal of Behavioral Medical Science, 2003, 12(1): 14 16), the model was established (i.e., establishing animal model of anti-depression by means of CUMS): the foot electric shock (voltage: […] (5 minutes), drying at 45° C. […] All parameters to be tested were expressed as Mean±SD (X±s), and tested by means of analysis of variance (ANOVA) in SPSS 12.0 software (purchased from SPSS Inc., USA), p<0.05 means that there was a significant difference.
# [5] = tested on: rats with chronic stress induced depression model; experiment: Open-field test, chronic stress induced depression; format: in vivo, SD rats; conditions: 3 mg/kg/day gavage for 21 days, 3 minutes, Hydrochloride
# Description: as §1, with “(60±10)%. The open-field device was of 40 cm in height, 80 cm in both length and width, without cap, the inner walls and the bottom of the device are black, and the bottom was divided into 25 squares with equal area. The numbers of squares that the animals pass through were designated as the score of horizontal movement, and the numbers of standing (with the forelegs above 1 cm away from the ground) were designated as the score of vertical movement. Each animal was measured for one time, 3 minutes for each measurement.” for “(60±10)%.”
# [6] = tested on: rats with chronic stress induced depression model; experiment: Jump stair test, chronic stress induced depression; format: in vivo, SD rats; conditions: 3 mg/kg/day gavage for 21 days, 5 minutes, Hydrochloride; for Error times in testing period: after 24 hours
# Description: as §1, with “(60±10)%. […] A wooden platform (height: 5 cm, diameter: 8 cm) was placed into the box at the left back corner. Animals were placed into the response box to adapt to the environment for 3 minutes, and then the box was immediately electrified with […] alternating current, the normal response of the animal which suffered from electric shock was to jump onto the platform in order to avoid such harmful stimulation. Most animals were likely to jump down to the copper railings again or for several times, and then quickly jump back to the platform after suffering from the electric shock, being trained like this for 5 minutes, the times that the rats suffered from the electric shock were designated as error times. The test was carried out again after 24 hours, rats were placed on the platform and the box was charged, timing and recording the error times for 5 minutes.” for “(60±10)%.”
# ICR mice [7] = experiment: Tail suspension test in mice, extract of Radix paeoniae alba; format: in vivo; conditions: 3.5 mg/kg/d gavage for 2 days; 1 hour after last administration; 4 min; Hydrochloride
# Description: Each group was administered at a dosage of 0.2 ml/10 g body weight. The vehicle group was administered with deionized water by gavage once a day, for 2 days. The test was carried out at 1 hour after the last administration. The tail of mouse (2 cm away from the tip of the tail) was fixed to the connection line of 100 g tension transducer with adhesive plaster, and the mouse was hung upside down, with the head about 15 cm away from the experimental bench, the transducer was connected to the Medlab bio-signals acquisition and processing system, after 2 min of adaption, the immobility time(s) for 4 min was recorded.
# The experimental data was expressed as X±s, analyzed by SPSS 13.0 statistical software by means of One-Way ANOVA test.
# ICR mice [8] = experiment: Forced swimming test in mice; format: in vivo; conditions: 1 h after administration, last 4 min; for Immobility Time (s): listed as paeoniflorin
# Description: Each group was administered by gavage at a dose of 0.2 ml/10 g weight, for two days, deionized water was administered to vehicle group.
# In the second day, 1 h after the administration, the mice were placed separately into a water cylinder with 20 cm of height, 18 cm of diameter, 10 cm of depth, 23±2° C. of water temperature; observing each for 6 min, after 2 min of adaption, the immobility time over the last 4 min was recorded.
# The data was expressed as x±s, analyzed by SPSS 13.0 statistical software by means of One-Way ANOVA test, the homogeneity of variance was tested by LSD and SNK test.
# [9] = 3.5 mg/kg/d by gavage for two days
# [10] = Day 14, listed as Positice control, Hydrochloride
# [11] = Day 14, listed as Prozac, Hydrochloride
# [12] = Day 21, listed as Positice control, Hydrochloride
# [13] = Day 21, listed as Prozac, Hydrochloride
# [14] = 7 mg/kg/d by gavage for two days
# [15] = 14 mg/kg/d by gavage for two days
smiles,measurement,setting,value
Fc1ccc([C@@H]2CCNC[C@H]2COc2ccc3c(c2)OCO3)cc1 [Paroxetine],Hypothermia value (° C.),ICR mice [1],2.38 ± 0.69** ° C.
same,Hypothermia value (° C.),ICR mice [1]; listed as paroxetine,significantly recede
"CNCCC(Oc1ccc(C(F)(F)F)cc1)c1ccccc1 (stereo not drawn) [Positive control, Fluoxetine Hydrochloride]",Immobility Time,ICR mice [2]; [9],66.21 ± 33.253 s
same,body weights,[3]; Day 0,257.19 ± 9.90 g
same,body weights,[3]; Day 7,265.90 ± 13.94 g
same,body weights,[3]; [10],280.64 ± 12.32 g
same,body weights,[3]; [11],significantly increased
same,body weights,[3]; [12],291.00 ± 11.31 g
same,body weights,[3]; [13],significantly increased
same,comsumption of aqeous sucrose,[4]; Day 0,12.67 ± 5.53 mL
same,comsumption of aqeous sucrose,[4]; Day 7,10.00 ± 4.24 mL
same,comsumption of aqeous sucrose,[4]; [10],15.00 ± 2.22 mL
same,comsumption of aqeous sucrose,[4]; [11],significantly increased
same,comsumption of aqeous sucrose,[4]; [12],14.91 ± 2.68 mL
same,comsumption of aqeous sucrose,[4]; [13],significantly increased
same,Score of horizontal movement,[5]; listed as Positice control,28.09 ± 18.55
same,Score of vertical movement,[5]; listed as Positice control,7.00 ± 3.90
same,Score of horizontal movement,[5]; listed as Prozac,significantly increased
same,Score of vertical movement,[5]; listed as Prozac,significantly increased
same,Error times in training period,[6],2.09 ± 1.22
same,Error times in training period,[6]; listed as Prozac,significantly reduced
same,Error times in testing period,[6],0.72 ± 1.19
same,Error times in testing period,[6]; listed as Prozac,significantly reduced
same,Immobility Time,ICR mice [7],significantly reduced
C[C@@]12C[C@@]3(O)O[C@@H](O1)[C@]1(COC(=O)c4ccccc4)[C@H]3C[C@@]12O[C@@H]1O[C@H](CO)[C@@H](O)[C@H](O)[C@H]1O [Paeoniflorin],Immobility Time,ICR mice [2]; [9],85.62 ± 31.225 s
same,Immobility Time (s),ICR mice [2]; [9],not significantly different from the model group
same,Immobility Time,ICR mice [2]; [14],76.83 ± 36.452 s
same,Immobility Time (s),ICR mice [2]; [14],not significantly different from the model group
same,Immobility Time,ICR mice [2]; [15],81.32 ± 32.756 s
same,Immobility Time (s),ICR mice [2]; [15],not significantly different from the model group
same,Immobility Time,ICR mice [8]; [9],58.60 ± 32.320 s
same,Immobility Time (s),ICR mice [8]; [9],not significantly different from the model group
same,Immobility Time,ICR mice [8]; [14],43.94 ± 38.341 s
same,Immobility Time (s),ICR mice [8]; [14],not significantly different from the model group
same,Immobility Time,ICR mice [8]; [15],50.39 ± 31.257 s
same,Immobility Time (s),ICR mice [8]; [15],not significantly different from the model group

# Source: patent publication US9023817B2, “Use of albiflorin for anti-depression” (priority 2009, dated 2015)
